Data as given in patent US11021690B2, “Mutant-type uricase, PEG modified mutant-type uricase, and application thereof” (SHANGHAI INSTITUTE OF BIOLOGICAL PRODUCTS CO., LTD., priority 2015, dated 2021).

Assays:
[1] = test system: PEG-K103C: recombinant urate oxidase (uricase, PBC, SEQ ID NO: 1) mutant K103C, PEG-modified (mPEG-MAL, approximately 20 kD); assay: Determination of Michaelis constant of PEG-modified K103C (uric acid oxidation, UV absorbance at 290 nm); assay type: biochemical; settings: substrate uric acid, after PEG modification
Description: (§1) The activity of uricase was detected by UV spectrophotometry, enzymatic reaction rate was detected by measuring the decrease in absorbance at 290 nm caused by the oxidation of uric acid to allantoin. The enzyme activity unit is defined as follows: at 37° C., pH 8.5, the amount of uricase needed to catalyze the decomposition of 1 μmol of uric acid per minute is defined as 1 enzyme activity unit. The efficacy of uricase is represented as the activity unit of protein per mg (U/mg). […] Therefore, the oxidation of 1 μM uric acid in the reaction caused the reduction of absorbance by 12.04 mAu. The absorbance is derived from the linear part as the changes of the uric acid concentration. Wherein the calculation formula of enzyme activity is shown as follows: Enzyme activity (U/ml)=(ODb−ODt)*Vt*df/12.04*1.0*Vs*t
(§2) (Odb: the absorbance value in a blank control tube; Odt: the absorbance value in a detection tube; Vt: the total reaction volume, 1.28 ml; df: the dilution fold before sample addition to the system; Vs: the total volume after adding the test sample of uricase, 0.2 ml; t: the reaction time, 5 min; 12.04: the molar extinction coefficient of the substrate, uric acid under the test conditions; 1.0: optical path of cuvette, 1.0 cm) Enzyme activity (U/mg)=(U/ml)/C
(§3) (1) 1 mL of uric acid working solution was added to 2 EP tubes, respectively, marked as a reaction tube and a control tube, and subjected to the warm bath at 37° C. for 5 mins;
(§4) (2) Reaction tube: 200 μL of diluted enzyme solution was added at 37° C., and reacted for 5 min; control tube: no treatment at 37° C. and reacted for 5 min;
(§5) (3) Reaction tube: 80 μL, 20% of KOH was added to quench the reaction; control tube: after 80 μL, 20% of KOH was added to quench the reaction, 200 μL of diluted enzyme solution was added;
(4) UV absorption wavelength was determined at 290 nm. […]
(§6) By comparing Michaelis constant, the maximum enzymatic reaction rate and the catalytic constant of the mutant K103C before and after PEG modification, the effect of PEG modification on mutant uricase was evaluated.

[2] = test system: recombinant urate oxidase K103C (uricase, PBC, SEQ ID NO: 1, mutant K103C), unmodified; assay: Determination of Michaelis constant of unmodified K103C (uric acid oxidation, UV absorbance at 290 nm); assay type: biochemical; settings: substrate uric acid, before PEG modification
Description: as §1, §2, §3, §4, §5
(4) UV absorption wavelength was determined at 290 nm.
as §6

## O=c1[nH]c(=O)c2[nH]c(=O)[nH]c2[nH]1 [uric acid]
[1]
  Km: 10.8 µM
  Vmax: 1.823 µM/min
  kcat: 12.396 s⁻¹
[2]
  Km: 11.4 µM
  Vmax: 2.333 µM/min
  kcat: 15.864 s⁻¹
